Like-named read-outs stand apart in the source and are kept apart here.

The subject of experiment [1] is NCI-H460. The experiment in a line: Inhibition test on cell proliferation (MTT), NCI-H460. In kind it is cell-based, human. The protocol:
(§1) Tumor cells (NCI-H460, BxPC-3, HT-29, HCC-LM3) in the logarithmic growth phase were digested, centrifuged, and the supernatants were removed. Cells were resuspended by adding fresh culture medium, and counted using a cell counting plate. 100 μL of culture medium (containing cells) was added to a 96-well plate according to the standard of 2000 to 6000 cells per well and incubated in an incubator (37° C., 5% CO2) for 24 hours. After the cells were completely adhered to the wall, the test sample and Plinabulin were diluted to different concentrations using fresh culture medium, and 4 wells were set for each concentration. After 72 hours of drug treatment, the culture medium was removed, and 20 μL of MTT at a concentration of 5 mg/mL was added to each well. After 3-4 hours in the incubator, the MTT was discarded, and 100 μL of DMSO was added to each well, and placed in a 96-well plate shaker to completely dissolve the purple formazan. Subsequently, the absorbance (OD value) was detected at a wavelength of 490 nm using a microplate reader. The experiment also required setting up zero-setting wells (blank culture medium, MTT, DMSO). Cell inhibition rate=1−(OD value of drug-dosed group−OD value of zero-setting group)/(OD value of blank group−OD value of zero-setting group)×100%.

Experiment [2] has as its system BxPC-3. The experiment in a line: Inhibition test on cell proliferation (MTT), BxPC-3. The format is cell-based, human. The conditions noted are these: Homo sapiens, BXPC-3, 72 h, read-out: IC50 (nM) BxPC-3. The protocol: as §1
[3] abbreviates: Homo sapiens, NCI-H460, 72 h, 72 hours of drug treatment, MTT, read-out: IC50 (nM) NCI-H460.
The mark [4] stands for this setting: Homo sapiens, NCI-H460, 72 h, read-out: IC50 (nM) NCI-H460, 72 hours of drug treatment, MTT.
The mark [5] stands for this setting: 72 hours of drug treatment, MTT.

As a reminder, the IC50 is the concentration needed to halve the response being measured. Take `CC(C)c1c(/C=c2\[nH]c(=O)/c(=C/c3cccc(C(=O)c4ccc(F)cc4)c3)[nH]c2=O)ncn1CCCN1CCN(C(=O)C2CCCCC2)CC1` [PLN-2-38, (3Z,6Z)-3-(3-(p-fluorobenzoyl)phenyl)methylene-6-((5-isopropyl-1-(3-N-cyclohexanecarbonylpiperazinyl)propylimidazol-4-yl)methylene)piperazine-2,5-dione]: the IC50 in experiment [1] (setting [3]) came to 7.3 ± 0.44 nM.

For the compound `CC(C)c1c(/C=c2\[nH]c(=O)/c(=C/c3cccc(C(=O)c4ccc(F)cc4)c3)[nH]c2=O)ncn1CCCN1CCN(S(C)(=O)=O)CC1` [PLN-2-42, (3Z,6Z)-3-(3-(p-fluorobenzoyl)phenyl)methylene-6-((5-isopropyl-1-(3-N-methylsulfonylpiperazinyl)propylimidazol-4-yl)methylene)piperazine-2,5-dione], the values for the IC50 in experiment [1] (setting [4]) and in experiment [2] were 6.59 ± 1.29 nM and 3.38 ± 0.53 nM, respectively.

On to `CC(=O)N1CCN(CCCn2cnc(/C=c3\[nH]c(=O)/c(=C/c4cccc(C(=O)c5ccc(F)cc5)c4)[nH]c3=O)c2C(C)C)CC1` [PLN-2-30, (3Z,6Z)-3-(3-(p-fluorobenzoyl)phenyl)methylene-6-((5-isopropyl-1-(3-N-acetylpiperazinyl)propylimidazol-4-yl)methylene)piperazine-2,5-dione], for which the figures for the IC50 in experiment [1] (setting [3]) and in experiment [2] (setting [5]) were 3.98 ± 0.33 nM and 2.3 ± 0.08 nM, respectively.

On to `CC(C)c1c(/C=c2\[nH]c(=O)/c(=C/c3cccc(C(=O)c4ccc(F)cc4)c3)[nH]c2=O)ncn1CCCN1CCN(S(=O)(=O)c2ccccc2)CC1` [PLN-2-43, (3Z,6Z)-3-(3-(p-fluorobenzoyl)phenyl)methylene-6-((5-isopropyl-1-(3-N-phenylmethylsulfonylpiperazinyl)propylimidazol-4-yl)methylene)piperazine-2,5-dione], for which the IC50 in experiment [1] (setting [3]) is 11.1 ± 0.9 nM.

On to `CC(C)c1c(/C=c2\[nH]c(=O)/c(=C/c3cccc(C(=O)c4ccc(F)cc4)c3)[nH]c2=O)ncn1CCCN1CCN(c2ccc(F)cc2)CC1` [PLN-2-26, (3Z,6Z)-3-(3-(p-fluorobenzoyl)phenyl)methylene-6-((5-isopropyl-1-(3-N-(p-fluorophenyl)piperazinyl)propylimidazol-4-yl)methylene)piperazine-2,5-dione], for which the IC50 in experiment [1] (setting [3]) came to 50.1 ± 0.69 nM.

For the compound `CC(C)C(=O)N1CCN(CCCn2cnc(/C=c3\[nH]c(=O)/c(=C/c4cccc(C(=O)c5ccc(F)cc5)c4)[nH]c3=O)c2C(C)C)CC1` [PLN-2-32, (3Z,6Z)-3-(3-(p-fluorobenzoyl)phenyl)methylene-6-((5-isopropyl-1-(3-N-isobutyrylpiperazinyl)propylimidazol-4-yl)methylene)piperazine-2,5-dione], the IC50 turned out to be 7.95 ± 1.29 nM in experiment [1] (setting [3]) and 4.16 ± 0.78 nM in experiment [2] (setting [5]).

For the compound `CCC(CC)C(=O)N1CCN(CCCn2cnc(/C=c3\[nH]c(=O)/c(=C/c4cccc(C(=O)c5ccc(F)cc5)c4)[nH]c3=O)c2C(C)C)CC1` [PLN-2-34, (3Z,6Z)-3-(3-(p-fluorobenzoyl)phenyl)methylene-6-((5-isopropyl-1-(3-N-(2-ethylbutyryl)piperazinyl)propylimidazol-4-yl)methylene)piperazine-2,5-dione], the IC50 in experiment [1] (setting [3]) was found to be 20.1 ± 3.67 nM; in experiment [2] (setting [5]), 17.5 ± 0.27 nM.

As for `CC(C)c1c(/C=c2\[nH]c(=O)/c(=C/c3cccc(C(=O)c4ccc(F)cc4)c3)[nH]c2=O)ncn1CCCN1CCN(C(=O)OC(C)(C)C)CC1` [PLN-2-15, (3Z,6Z)-3-(3-(p-fluorobenzoyl)phenyl)methylene-6-((5-isopropyl-1-(3-N-tert-butoxycarbonylpiperazinyl)propylimidazol-4-yl)methylene)piperazine-2,5-dione], the IC50 in experiment [1] (setting [3]) is 8.01 ± 1.24 nM; in experiment [2] (setting [5]) it was 6.77 ± 0.08 nM.

For `CC(C)c1c(/C=c2\[nH]c(=O)/c(=C/c3cccc(Oc4ccc(F)cc4)c3)[nH]c2=O)ncn1CCCN1CCN(C)CC1` [PLN-2-22, (3Z,6Z)-3-(3-(p-fluorophenoxy)phenyl)methylene-6-((5-isopropyl-1-(3-N-methylpiperazinyl)propylimidazol-4-yl)methylene)piperazine-2,5-dione], the IC50 amounted to 85.7 ± 10.6 nM in experiment [1] (setting [3]) and 66.2 ± 1.45 nM in experiment [2] (setting [5]).

In the case of `CC(C)c1c(/C=c2\[nH]c(=O)/c(=C/c3cccc(C(=O)c4ccc(F)cc4)c3)[nH]c2=O)ncn1CCCN1CCN(C=O)CC1` [PLN-2-29, (3Z,6Z)-3-(3-(p-fluorobenzoyl)phenyl)methylene-6-((5-isopropyl-1-(3-N-formylpiperazinyl)propylimidazol-4-yl)methylene)piperazine-2,5-dione], the IC50 in experiment [1] (setting [3]) stood at 3.46 ± 0.25 nM; in experiment [2] (setting [5]), 1.4 ± 0.04 nM.

Consider `CC(C)c1c(/C=c2\[nH]c(=O)/c(=C/c3cccc(C(=O)c4ccc(F)cc4)c3)[nH]c2=O)ncn1CCCN1CCN(C(=O)C23CC4CC(CC(C4)C2)C3)CC1` [PLN-2-39, (3Z,6Z)-3-(3-(p-fluorobenzoyl)phenyl)methylene-6-((5-isopropyl-1-(3-N-adamantanecarbonylpiperazinyl)propylimidazol-4-yl)methylene)piperazine-2,5-dione], for which the IC50 in experiment [1] (setting [4]) is 37.2 ± 3.61 nM.

Take `O=c1[nH]/c(=C\c2ncn(CCCN3CCNCC3)c2C2CC2)c(=O)[nH]/c1=C\c1cccc(Oc2ccc(F)cc2)c1` [PLN-2-19]: in experiment [1] (setting [4]), the IC50 stood at 213 ± 12.8 nM.

For the compound `CC(C)c1c(/C=c2\[nH]c(=O)/c(=C/c3cccc(C(=O)c4ccc(F)cc4)c3)[nH]c2=O)ncn1CCCN1CCN(C(=O)NC2CCCC2)CC1` [PLN-2-46, (3Z,6Z)-3-(3-(p-fluorobenzoyl)phenyl)methylene-6-((5-isopropyl-1-(3-N-cyclopentylaminocarbonylpiperazinyl)propylimidazol-4-yl)methylene)piperazine-2,5-dione], the IC50 in experiment [1] (setting [3]) came out at 21.6 ± 0.52 nM; in experiment [2] (setting [5]), 9.09 ± 0.89 nM.

As to `CC(C)c1c(/C=c2\[nH]c(=O)/c(=C/c3cccc(C(=O)c4ccc(F)cc4)c3)[nH]c2=O)ncn1CCCN1CCN(C(=O)OCc2ccc(B3OC(C)(C)C(C)(C)O3)cc2)CC1` [PLN-2-28, (3Z,6Z)-3-(3-(p-fluorobenzoyl)phenyl)methylene-6-((5-isopropyl-1-(3-N-p-(4,4,5,5-tetramethyl-1,3,2-dioxaborolan-2-yl)benzyloxycarbonylpiperazinyl)propylimidazol-4-yl)methylene)piperazine-2,5-dione], the IC50 in experiment [1] (setting [4]) came out at 15.4 ± 1.68 nM; in experiment [2] it was 9.22 ± 3.93 nM.

`CC(C)c1c(/C=c2\[nH]c(=O)/c(=C/c3cccc(C(=O)c4ccc(F)cc4)c3)[nH]c2=O)ncn1CCCN1CCN(C(=O)C(C)(C)C)CC1` [PLN-2-33, (3Z,6Z)-3-(3-(p-fluorobenzoyl)phenyl)methylene-6-((5-isopropyl-1-(3-N-tert-butyrylpiperazinyl)propylimidazol-4-yl)methylene)piperazine-2,5-dione]: the results for the half-inhibitory concentration (IC50) in experiment [1] (setting [4]) and in experiment [2] were 9.91 ± 2 nM and 6.39 ± 2.51 nM, respectively.

On to `CC(C)c1c(/C=c2\[nH]c(=O)/c(=C/c3ccc(F)cc3)[nH]c2=O)ncn1CCCN1CCOCC1` [PLN-2-11, (3Z,6Z)-3-p-fluorobenzylidene-6-((5-isopropyl-1-(−3-morpholinyl)propylimidazol-4-yl)methylene)piperazine-2,5-dione], for which, in experiment [1] (setting [3]), the IC50 was found to be 234 ± 25.7 nM.

In the case of `CC(C)c1c(/C=c2\[nH]c(=O)/c(=C/c3cccc(C(=O)c4ccc(F)cc4)c3)[nH]c2=O)ncn1CCCN1CCN(C(=O)C2CCCC2)CC1` [PLN-2-37, (3Z,6Z)-3-(3-(p-fluorobenzoyl)phenyl)methylene-6-((5-isopropyl-1-(3-N-cyclopentnecarbonylpiperazinyl)propylimidazol-4-yl)methylene)piperazine-2,5-dione], the values for the IC50 in experiment [1] (setting [4]) and in experiment [2] were 7.86 ± 1.37 nM and 6.23 ± 0.15 nM, respectively.

With `CC(C)c1c(/C=c2\[nH]c(=O)/c(=C/c3cccc(C(=O)c4ccc(F)cc4)c3)[nH]c2=O)ncn1CCCN1CCN(C(=O)NC2CCCCC2)CC1` [PLN-2-47, (3Z,6Z)-3-(3-(p-fluorobenzoyl)phenyl)methylene-6-((5-isopropyl-1-(3-N-cyclohexylaminocarbonylpiperazinyl)propylimidazol-4-yl)methylene)piperazine-2,5-dione], the IC50 was 6.56 ± 0.32 nM in experiment [1] (setting [3]) and 3.62 ± 0.48 nM in experiment [2] (setting [5]).

For the compound `CC(C)=CC(=O)N1CCN(CCCn2cnc(/C=c3\[nH]c(=O)/c(=C/c4cccc(C(=O)c5ccc(F)cc5)c4)[nH]c3=O)c2C(C)C)CC1` [PLN-2-40, (3Z,6Z)-3-(3-(p-fluorobenzoyl)phenyl)methylene-6-((5-isopropyl-1-(3-N-(3,3-dimethyl)acryloylpiperazinyl)propylimidazol-4-yl)methylene)piperazine-2,5-dione], the figures for the IC50 in experiment [1] (setting [3]) and in experiment [2] (setting [5]) were 7.56 ± 0.33 nM and 4.4 ± 3.1 nM, respectively.

As for `CC(C)c1c(/C=c2\[nH]c(=O)/c(=C/c3cccc(C(=O)c4ccc(F)cc4)c3)[nH]c2=O)ncn1CCCN1CCN(Cc2ccccc2)CC1` [PLN-2-25, (3Z,6Z)-3-(3-(p-fluorobenzoyl)phenyl)methylene-6-((5-isopropyl-1-(3-N-benzylpiperazinyl)propylimidazol-4-yl)methylene)piperazine-2,5-dione], the IC50 in experiment [1] (setting [3]) was 18.4 ± 2.95 nM.

For the compound `O=c1[nH]/c(=C\c2ncn(CCCN3CCNCC3)c2C2CC2)c(=O)[nH]/c1=C\c1cccc(Oc2ccc(F)cc2)c1` [PLN-2-19-1], in experiment [1] (read-out: IC50 (nM) NCI-H460, 72 hours of drug treatment, MTT), the IC50 came to 204 ± 4.24 nM.

In the case of `CN1CCN(CCCn2cnc(/C=c3\[nH]c(=O)/c(=C/c4cccc(Oc5ccc(F)cc5)c4)[nH]c3=O)c2C2CC2)CC1` [PLN-2-23], the concentration for half-maximal inhibition (IC50) in experiment [1] (setting [3]) turned out to be 158 ± 25.7 nM.

The values above are taken from patent US20240140941A1, “DERIVATIVE OF 2,5-DIKETOPIPERAZINE COMPOUND, AND PREPARATION METHOD THEREFOR, PHARMACEUTICAL COMPOSITION THEREOF AND USE THEREOF” (DALIAN WZ PROBIOTICS AD HEALTH CO., LTD, priority 2020, published 2024).
